# From US5112856A, “Therapeutic treatment of intestinal inflammation by administration of 3,4-dihydro-2H-1-benzopyran derivatives” (Hoffmann-La Roche Inc., priority 1990, dated 1992)
# Assays:
# [1] = system: LTE4; assay: Rat colon mucosa in vitro, short-circuit current: LTE4-induced electrolyte secretion; conditions: six animals
# Excerpt: (§1) The rat colon mucosa bioassay system is based on the measurement of changes in salt transport across the animal tissue due to absorption or secretion, using the standard short-circuit current technique described by Ussing, et al., Acta Physiol. Scand. 23: 110-127 (1951). Diarrhea is the most common symptom of gastrointestinal inflammation and is present in all types of inflammatory bowel disease. Pantera, et al., Ital. J. Gastroenterol. 13: 24-27 (1981); Sales, et al., Arch. Int. Med. 143: 294-299 (1983); Hodgson, Br. J. Clin. Pharmac. 14: 159-270 (1982). Diarrhea results from decreases in the salt absorption or increases in the salt secretion in the bowel and can be quantified in vitro by the above mentioned method of Ussing et al. In particular, a one-cm segment of colon is removed from animals weighing 200 to 250 g, exposed in vitro to leukotrienes or to bradykinin, which are inducers of salt secretion, and the resulting change in the net salt transport with and without the presence of 6-acetyl-7-[5-(4-acetyl-3 -hydroxy-2-propylphenoxy) pentyloxy]-3,4-dihydro-2H-1-benzopyran-2-carboxylic acid as an inhibitor is measured. Tissues were mounted in pairs in Ussing chambers and short-circuited with automatic voltage clamps (from the University of Iowa Bioengineering Department). A 15-minute period of equilibrium was allowed for the preparation to reach steady state. […]
# [2] = system: LTD4; assay: Rat colon mucosa in vitro, short-circuit current: LTD4-induced electrolyte secretion; conditions: six animals
# Excerpt: as §1
# [3] = system: myeloperoxidase of the rat colon; assay: Acetic acid-induced colitis in rats, in vivo (colonic myeloperoxidase); parameters: species or system Male rats (Sprague-Dawley); conditions: oral
# Excerpt: The rat acetic acid-induced colitis biossay has been described by J. E. Krawisz, et al. in Amer. J. Proc. Gastro. Col. Rec. Surg. 31: 11-18 (1980), and by P. Sharon and W. F. Stenson in Gastroenterology 88: 55-63 (1985) and 86: 453-460 (1984). Acetic acid-induced colitis is characterized by the movement of inflammatory cells into the colon, with the number of such cells in the mucosa being measured by the activity of myeloperoxidase, a marker enzyme for these cells. Positive desirable activity is indicated by a reduction in the high levels of myeloperoxidase caused by acetic acid. Male rats (Sprague-Dawley), weighing 150 to 300 g, were pretreated twice daily for two days with either the vehicle (water, or dimethylsulfoxide) or the test inhibitor compound suspended in water or dissolved in dimethylsulfoxide and orally administered. […] Twenty four hours after the acetic acid treatment, the animals were sacrificed, the colonic mucosa was surgically removed and homogenized in an aqueous buffer at pH 6 with a Tissumizer or similar device, and myeloperoxidase was measured in the homogenate using o-phenylenediamine as a chromagen, as described by A. Voller, D. E. Bidwell and A. Bartlett in The Enzyme Linked Immunosorbent Assay (ELISA), Zoological Soc., London, 1979, pages 29-30. […]
# [4] = system: guinea pig colon; assay: Carrageenan-induced colitis in guinea pigs, in vivo (water transport in distal colon); parameters: species or system Male/female guinea pigs (Hartley); conditions: oral
# Excerpt: The guinea pig carrageenan-induced colitis biossay has been described by A. B. Onderdonk in Inflammatory Bowel Diseases, Martinus Nijhoff Publ., Boston, Mass., pages 126-134 (1982), and in Human Intestinal Microflora in Health and Disease (D. J. Hentger, ed.), Academic Press, New York, 1983, pages 447-479. The polysaccharide iotacarrageenan, derived from red seaweed, produces a colitis in guinea pigs that resembles ulcerative colitis in humans. Male/female guinea pigs (Hartley), weighing 400 to 650 g, were given a 3% solution of degraded carrageenan in their drinking water on a daily basis. After about 7 days, the animals began to develop diarrhea, ceased to gain weight and became lethargic. After the animals received carrageenan in this manner for 14 days, the diarrhea was quantified by measuring the water transport in the distal colon by single pass perfusion using 14C-polyethylene glycol 4000 (PEG 4000) as a marker. Control animals were given an aqueous drinking solution containing 3% mannitol in place of the carrageenan. Simultaneously, randomly selected animals from each of these two groups were treated orally with the test inhibitor compound, twice daily. […]
# [5] = system: antibiotic-induced colitis; assay: Antibiotic (clindamycin)-induced colitis in hamsters, in vivo; parameters: species or system Male Syrian hamsters (LUG); conditions: for activity in clindamycin-induced colitis: oral
# Description: Male Syrian hamsters (LUG), weighing 80 to 120 g, were each given a single dose of 175 mg/kg of clindamycin-phosphate or of clindamycin-hydrochlorideintraperitoneally, to induce colitis. Approximately seven hours after injection, the animals were given the test compound orally or intraperitoneally and the therapy was continued twice a day for a period of four more days. For oral administration, the […] was suspended in water or dissolved in dimethylsulfoxide and delivered to the animals by gavage using an oral intubating needle. The effect of the therapy was measured by use of the Hazard Ratio, which is the ratio of the mortality of the animals treated with the test inhibitor compound contained in a vehicle to the mortality of the animals treated with the vehicle containing none of the test inhibitor compound. The mortality was determined for the test inhibitor compound-treated groups and for the vehicle-treated groups, respectively, twice daily, and was evaluated by comparing the survival curves of each group. The Kaplan-Meier estimate of the survival curve was calculated for each group and the Mantel-Cox (logrank) test was used to compare the survival curve of each test inhibitor compound-treated (therapy) group to that of the corresponding vehicle control group. […]
# [6] = system: LTC4; assay: Rat colon mucosa in vitro, short-circuit current: LTC4-induced electrolyte secretion; conditions: six animals
# Excerpt: as §1
# [7] = system: LTB4; assay: Rat colon mucosa in vitro, short-circuit current: LTB4-induced electrolyte secretion; conditions: six animals
# Excerpt: as §1
# [8] = 10 mg/kg oral, in 0.15 ml water, >1.0 = prolongs survival vs. vehicle
compound,measurement,setting,value
"CCCc1c(OCCCCCOc2cc3c(cc2C(C)=O)CCC(C(=O)O)O3)ccc(C(C)=O)c1O (racemic) [6-acetyl-7-[5-(4-acetyl-3-hydroxy-2-propylphenoxy)pentyloxy]-3,4-dihydro-2H-1-benzopyran-2-carboxylic acid]","% Inhibition Against Leukotrienes, LTE4",[1]; 1 μM inhibitor,29.8 ± 15.0%
same,"% Inhibition Against Leukotrienes, LTE4",[1]; 10 μM inhibitor,44.2 ± 9.8%
same,"% Inhibition Against Leukotrienes, LTD4",[2]; 1 μM inhibitor,30.8 ± 15.4%
same,"% Inhibition Against Leukotrienes, LTD4",[2]; 10 μM inhibitor,62.4 ± 10.0%
same,activity in reducing myeloperoxidase of the rat colon,[3]; 30 and 90 mg/kg (FIG. 3),active
same,water transport rate in the colon,"[4]; 10 and 30 mg/kg, carrageenan-diseased animals (FIG. 5)",water transport rates about equal to that of the control animals
same,Hazard Ratio,[5]; [8],3.80
same,Hazard Ratio,"[5]; 60 mg/kg intraperitoneal, in 0.075 ml PEG400, >1.0 = prolongs survival vs. vehicle",4.77
same,Hazard Ratio,"[5]; 60 mg/kg oral, in 0.15 ml water, >1.0 = prolongs survival vs. vehicle",12.0
same,Hazard Ratio,"[5]; 100 mg/kg oral, in 0.15 ml water, >1.0 = prolongs survival vs. vehicle",64.2
same,"edema, hemorrhaging, congestion, necrosis, focal erosions, inflammatory cell infiltration of cecum (and colon)",[5]; 60 or 100 mg/kg,In most cases these effects were reduced or abolished
same,diarrhea,[5]; clindamycin-treated hamsters,reduced the diarrhea
same,histopathology of the cecum and colon,[5]; clindamycin-treated hamsters,substantially benefited the histopathology of the cecum and colon
same,survival of clindamycin-treated animals,[5]; clindamycin-treated hamsters,prolonging the survival
same,Hazard Ratio,"[5]; ip, 10 mg/kg",2.87
same,activity in clindamycin-induced colitis,[5]; doses ranging from 10 to 100 mg/kg,active
same,"% Inhibition Against Leukotrienes, LTC4",[6]; 1 μM inhibitor,9.5 ± 19.2%
same,"% Inhibition Against Leukotrienes, LTC4",[6]; 10 μM inhibitor,57.1 ± 19.7%
same,"% Inhibition Against Leukotrienes, LTB4",[7]; 1 μM inhibitor,44.4 ± 13.1%
same,"% Inhibition Against Leukotrienes, LTB4",[7]; 10 μM inhibitor,69.6 ± 11.9%
"CCCc1c(OCC(O)COc2ccc3c(=O)cc(C(=O)O)oc3c2CCC)ccc(C(C)=O)c1O (stereo not drawn) [Comparison 1, 7-[3-(4-acetyl-3-hydroxy-2-propylphenoxy)-2-hydroxypropoxy]-4-oxo-8-propyl-4H-1-benzopyran-2-carboxylic acid, reference compound]",Hazard Ratio,[5]; [8],1.42
same,Hazard Ratio,"[5]; ip, 10 mg/kg",2.02
same,activity in clindamycin-induced colitis,[5]; 10 mg/kg,inactive
"CCCc1c(OCCCOc2ccc3c(=O)cc(CCC(=O)O)oc3c2CCC)ccc(C(C)=O)c1O [Comparison 2, 7-[3-(4-acetyl-3-hydroxy-2-propylphenoxy)propoxy]-4-oxo-8-propyl-4H-1-benzopyran-2-propanoic acid, reference compound]",Hazard Ratio,"[5]; 13 mg/kg oral, in 0.15 ml water, >1.0 = prolongs survival vs. vehicle",1.68
same,activity in clindamycin-induced colitis,[5]; 10 mg/kg,inactive
"O=C1CCN(c2ccccc2)N1 [phenidone, reference compound]",activity in reducing myeloperoxidase of the rat colon,[3]; 100 and 200 mg/kg (FIG. 2),active
"O=C(O)c1cc(/N=N/c2ccc(S(=O)(=O)Nc3ccccn3)cc2)ccc1O [sulfasalazine, reference compound]",water transport in the colon,"[4]; 100 mg/kg, carrageenan-diseased animals (FIG. 4)",restored the water transport in the colon of the diseased animals from a net secretory level to a level about that of the control animals
